Measured values reported in the NIST ThermoML archive (doi:10.1016/j.fluid.2018.10.024).

Columns and labels:
[1] = refractive index (Na D-line) (dimensionless); details: 101.33 kPa, Liquid, Standard Abbe refractometry
[2] = 101.33 kPa, Liquid; for viscosity: Capillary tube (Ostwald / Ubbelohde) method; for mass density: Vibrating tube method
[3] = xn = mol fraction of the nth substance listed; details: 101 kPa, Liquid, x1 = 1; for viscosity: Capillary tube (Ostwald / Ubbelohde) method; for mass density: Vibrating tube method
[4] = refractive index (Na D-line) (dimensionless); xn = mol fraction of the nth substance listed; details: 101 kPa, Liquid, Standard Abbe refractometry, x1 = 1

CC(C)=O [acetone]
Details | mass density, [2] [kg/m3] | refractive index, [1] | viscosity, [2] [mPa·s]
298.15 K | 784.41 | 1.3558 | 0.3034
303.15 K | 778.66 | 1.3534 | 0.2966
308.15 K | 773.08 | 1.3509 | 0.2831
313.15 K | 766.95 | 1.349 | 0.2689
318.15 K | 761.26 | 1.3449 | 0.2511

CC(C)=O [acetone] + ClC(Cl)Cl
Details | mass density, [3] [kg/m3] | refractive index, [4] | viscosity, [3] [mPa·s]
298.15 K | 784.41 | 1.3558 | 0.3034
303.15 K | 778.66 | 1.3534 | 0.2966
308.15 K | 773.08 | 1.3509 | 0.2831
313.15 K | 766.95 | 1.349 | 0.2689
318.15 K | 761.26 | 1.3449 | 0.2511

CO [methanol]
Details | mass density, [2] [kg/m3] | refractive index, [1] | viscosity, [2] [mPa·s]
298.15 K | 787.21 | 1.3271 | 0.5467
303.15 K | 782.75 | 1.3245 | 0.5058
308.15 K | 777.56 | 1.323 | 0.4818
313.15 K | 772.97 | 1.3208 | 0.4484
318.15 K | 768.03 | 1.3184 | 0.4208

CO [methanol] + CC(C)=O
Details | mass density, [3] [kg/m3] | refractive index, [4] | viscosity, [3] [mPa·s]
298.15 K | 787.21 | 1.3271 | 0.5467
303.15 K | 782.75 | 1.3245 | 0.5058
308.15 K | 777.56 | 1.323 | 0.4818
313.15 K | 772.97 | 1.3208 | 0.4484
318.15 K | 768.03 | 1.3184 | 0.4208

CO [methanol] + ClC(Cl)Cl
Details | mass density, [3] [kg/m3] | refractive index, [4] | viscosity, [3] [mPa·s]
298.15 K | 787.21 | 1.3271 | 0.5467
303.15 K | 782.75 | 1.3245 | 0.5058
308.15 K | 777.56 | 1.323 | 0.4765
313.15 K | 772.97 | 1.3208 | 0.4426
318.15 K | 768.03 | 1.3184 | 0.4153

ClC(Cl)Cl [trichloromethane]
Details | mass density, [2] [kg/m3] | refractive index, [1] | viscosity, [2] [mPa·s]
298.15 K | 1478.75 | 1.4422 | 0.5916
303.15 K | 1469.16 | 1.4397 | 0.558
308.15 K | 1460.01 | 1.4356 | 0.5333
313.15 K | 1450.39 | 1.4338 | 0.5072
318.15 K | 1440.03 | 1.4297 | 0.4849
